The source of these data is US10517889B2, “Modulators of SMAD7 expression” (Ionis Pharmaceuticals, Inc., priority 2017, dated 2019).

Strand notation (5' to 3'): a small letter for the sugar, then the base; units joined by * are phosphorothioate-linked, units joined directly phosphodiester-linked; [ ] holds rarer units or linkages, { } end groups; capitals alone tell only the bases. k = constrained ethyl (cEt); [5mC] = 5-methylcytosine; d = 2'-deoxy (DNA)

One data set relates to human SMAD7 mRNA. The experiment in a line: Antisense inhibition of human SMAD7 mRNA expression in Hep3B cells by 3-10-3 cEt gapmers, 10,000 nM, electroporation (Example 2). The format is cell-based. To be noted: Hep3B cells, 10,000 nM antisense oligonucleotide, electroporation, approximately 24 hours, RT-PCR primer probe set RTS5062, relative to untreated control cells. The gist of the method:
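Hep3B, 20,000 cells/well; electroporation, 10,000 nM ASO; ~24 h. Readout: SMAD7 mRNA by qRT-PCR (RTS5062), RIBOGREEN-normalised; % inhibition vs untreated.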
What is called % Inhibition is the drop in the measured response relative to a control, in per cent. A higher % Inhibition goes with a response far below the control. Turning to “799837 (antisense kT*k[5mC]*kA*dT*dA*dA*dG*d[5mC]*dA*dT*dA*dG*dA*kT*kT*kT) [compound 799837]”, the “% Inhibition” value stood at 38%.
Still for that read-out and setting: in the case of “799838 (antisense kT*kT*kG*d[5mC]*dA*d[5mC]*d[5mC]*d[5mC]*d[5mC]*d[5mC]*dA*dT*dA*kA*k[5mC]*kT) [compound 799838]” it was 2%.
Same read-out and setting: in the case of “799839 (antisense kA*kG*k[5mC]*dA*d[5mC]*dA*dA*dT*dA*dT*dG*dA*dA*kT*kG*kT) [compound 799839]” it was 36%; in that of “799840 (antisense kA*kG*kG*dG*dA*dA*dG*dT*dT*dA*dG*dT*dG*kT*kT*kT) [compound 799840]”, 22%.
The same measure, in the same setting: the result for “799852 (k[5mC]*kA*kA*dG*dT*dG*dT*d[5mC]*d[5mC]*dA*dT*d[5mC]*dA*kA*kG*k[5mC]; antisense) [compound 799852]” reads 11%; that for “799853 (k[5mC]*k[5mC]*kA*dA*dG*dT*dG*dT*d[5mC]*d[5mC]*dA*dT*d[5mC]*kA*kA*kG; antisense) [compound 799853]”, 42%; that for “799855 (kA*kG*k[5mC]*d[5mC]*dA*dA*dG*dT*dG*dT*d[5mC]*d[5mC]*dA*kT*k[5mC]*kA; antisense) [compound 799855]”, 52%.
As for “799856 (kG*k[5mC]*kA*dA*dG*d[5mC]*d[5mC]*dA*dA*dG*dT*dG*dT*k[5mC]*k[5mC]*kA; antisense) [compound 799856]”, the “% Inhibition” value stood at 43%.
In the case of “799857 (kA*kG*kA*dA*d[5mC]*dT*dG*dA*dA*dA*dG*d[5mC]*dG*kG*k[5mC]*kG; antisense) [compound 799857]”, the “% Inhibition” value was 31%.
Still for that read-out and setting: in the case of “799859 (kT*kG*kT*dA*dA*dT*dT*dT*dA*dG*d[5mC]*dA*dA*kT*kT*k[5mC]; antisense) [compound 799859]” it was 32%.
Turning to “799860 (kT*kG*k[5mC]*d[5mC]*dG*dA*d[5mC]*dA*d[5mC]*dA*dT*dG*dA*kG*kG*k[5mC]; antisense) [compound 799860]”, the “% Inhibition” value amounted to 0%.

Still in this data set, the particulars now being: Hep3B cells, electroporation with 10,000 nM antisense oligonucleotide, approximately 24 hours, RTS5062, percent inhibition of SMAD7 mRNA relative to untreated control cells.
Regarding “799821 (antisense k[5mC]*k[5mC]*k[5mC]*d[5mC]*dA*dG*dA*dA*dA*dA*d[5mC]*dA*dG*k[5mC]*k[5mC]*k[5mC]) [compound 799821]”, the “% Inhibition” value is 17%.
As to “799822 (antisense k[5mC]*kA*k[5mC]*dG*dA*dT*d[5mC]*d[5mC]*dT*dG*dG*dG*d[5mC]*kT*k[5mC]*kT) [compound 799822]”, the “% Inhibition” value is listed as 0%.
On to “799823 (antisense kA*k[5mC]*kA*dG*dG*dA*dA*dA*dG*dT*dG*dG*dA*kG*kG*kA) [compound 799823]”, for which the “% Inhibition” value amounted to 46%.
As for “799824 (antisense kG*kA*kA*dA*dT*dG*dG*d[5mC]*dT*d[5mC]*d[5mC]*dT*dG*k[5mC]*kA*kA) [compound 799824]”, the “% Inhibition” value turned out to be 9%.
Same read-out and setting: the result for “799825 (antisense kG*kA*k[5mC]*dT*dT*dG*dG*d[5mC]*dA*dG*d[5mC]*d[5mC]*dA*kA*kG*k[5mC]) [compound 799825]” reads 0%.
Still for that read-out and setting: the result for “799826 (antisense kG*kA*kT*d[5mC]*dA*dT*dT*d[5mC]*d[5mC]*d[5mC]*dA*d[5mC]*dA*k[5mC]*k[5mC]*k[5mC]) [compound 799826]” reads 33%.
Same read-out and setting: the result for “799827 (antisense kA*kA*k[5mC]*dT*dA*d[5mC]*dA*dA*d[5mC]*d[5mC]*dT*dT*dT*kT*kT*kA) [compound 799827]” reads 26%.
As to “799828 (antisense kT*kG*k[5mC]*dG*dA*dG*d[5mC]*d[5mC]*dA*dA*dG*dA*dG*kA*k[5mC]*kA) [compound 799828]”, the “% Inhibition” value is recorded as 54%.
Turning to “799829 (antisense kG*kA*kG*dT*dT*dT*dG*d[5mC]*dG*dA*dG*d[5mC]*d[5mC]*kA*kA*kG) [compound 799829]”, the “% Inhibition” value is given as 75%.
Same read-out and setting: the result for “799830 (antisense kG*kA*kA*dG*dA*dG*dT*dT*dT*dG*d[5mC]*dG*dA*kG*k[5mC]*k[5mC]) [compound 799830]” reads 55%.
The same measure, in the same setting: the result for “799841 (antisense kA*kA*kA*dG*dA*dA*dT*dG*dG*dT*dG*dG*dG*kT*kG*k[5mC]) [compound 799841]” reads 37%; that for “799842 (antisense kG*kA*kA*dA*dG*dA*dA*dT*dG*dG*dT*dG*dG*kG*kT*kG) [compound 799842]”, 16%; that for “799843 (antisense kG*kG*kA*dG*dG*dA*dG*dG*d[5mC]*dA*dA*dA*dT*kT*k[5mC]*kA) [compound 799843]”, 42%.
On the same count and under the same terms, the result for “799844 (antisense kA*kG*kA*dG*dG*dA*dG*dG*dA*dG*dG*d[5mC]*dA*kA*kA*kT) [compound 799844]” reads 11%; that for “799845 (antisense kG*kA*kA*dG*dT*dA*d[5mC]*d[5mC]*dT*dA*dG*dA*dG*kG*kA*kG) [compound 799845]”, 31%.
In the case of “799846 (kT*k[5mC]*k[5mC]*dA*d[5mC]*dT*dA*dT*dT*d[5mC]*dT*dA*dT*kG*kA*kA; antisense) [compound 799846]”, the “% Inhibition” value was determined as 25%.
As for “799847 (kT*kT*k[5mC]*d[5mC]*dA*d[5mC]*dT*dA*dT*dT*d[5mC]*dT*dA*kT*kG*kA; antisense) [compound 799847]”, the “% Inhibition” value worked out at 30%.
Same read-out and setting: the result for “799848 (kA*kG*k[5mC]*d[5mC]*dG*dA*dT*d[5mC]*dA*d[5mC]*dA*dA*dA*kA*kG*kG; antisense) [compound 799848]” reads 59%.
Still for that read-out and setting: the result for “799849 (kA*kT*kA*dA*dG*d[5mC]*d[5mC]*dG*dA*dT*d[5mC]*dA*d[5mC]*kA*kA*kA; antisense) [compound 799849]” reads 41%.

The same data set, now with this note: Hep3B cells, electroporation with 10,000 nM antisense oligonucleotide, approximately 24 hours, SMAD7 mRNA by RT-PCR (RTS5062), relative to untreated control cells.
In the case of “799850 (kG*k[5mC]*kA*dA*dT*dA*dA*dA*dT*d[5mC]*dA*dA*d[5mC]*k[5mC]*kA*kG; antisense) [compound 799850]”, the “% Inhibition” value is given as 49%.
Same read-out and setting: in the case of “799861 (kA*k[5mC]*k[5mC]*dG*d[5mC]*dA*dT*dG*d[5mC]*dG*dA*dT*d[5mC]*kG*kG*kT; antisense) [compound 799861]” it was 15%.
Same read-out and setting: in the case of “799862 (k[5mC]*k[5mC]*k[5mC]*dA*d[5mC]*d[5mC]*dG*d[5mC]*dA*dT*dG*d[5mC]*dG*kA*kT*k[5mC]; antisense) [compound 799862]” it was 14%.

Staying with this data set, now noted: Hep3B cells, electroporation, 10,000 nM antisense oligonucleotide, approximately 24 hours, RTS5062, relative to untreated control cells.
As to “799812 (antisense k[5mC]*kA*kG*dA*d[5mC]*dA*dG*d[5mC]*dT*dA*dA*dT*d[5mC]*kT*kG*k[5mC]) [compound 799812]”, the “% inhibition of SMAD7 mRNA expression” value came out at 39%.
On the same count and under the same terms, in the case of “799813 (antisense kA*kT*kG*d[5mC]*dA*dG*dA*d[5mC]*dA*dG*d[5mC]*dT*dA*kA*kT*k[5mC]) [compound 799813]” it was 16%; in that of “799814 (antisense k[5mC]*k[5mC]*kT*d[5mC]*dA*d[5mC]*dT*dT*dA*dG*d[5mC]*d[5mC]*dT*kG*k[5mC]*kA) [compound 799814]”, 0%; in that of “799815 (antisense k[5mC]*kT*k[5mC]*dT*dT*dG*dA*dT*dG*dA*dT*d[5mC]*d[5mC]*kT*k[5mC]*kA) [compound 799815]”, 68%.
Regarding “799816 (antisense kT*kG*kA*d[5mC]*dA*dA*dG*dG*dT*d[5mC]*d[5mC]*d[5mC]*d[5mC]*kA*kG*kG) [compound 799816]”, the “% inhibition of SMAD7 mRNA expression” value came to 19%.
On the same count and under the same terms, in the case of “799817 (antisense kT*kA*k[5mC]*dT*dG*dA*dT*dT*d[5mC]*dA*dT*dG*dA*kG*kG*kG) [compound 799817]” it was 45%; in that of “799818 (antisense k[5mC]*kA*k[5mC]*dT*dG*dA*dT*dA*dA*d[5mC]*dT*dA*dA*k[5mC]*kT*kT) [compound 799818]”, 24%.
On the same count and under the same terms, in the case of “799819 (antisense k[5mC]*k[5mC]*k[5mC]*d[5mC]*dA*d[5mC]*dT*dG*dA*dG*d[5mC]*dA*dG*kG*kA*kG) [compound 799819]” it was 26%.
“799820 (antisense k[5mC]*k[5mC]*k[5mC]*d[5mC]*dA*dG*d[5mC]*dA*dG*dG*dG*dT*dT*kT*kT*kG) [compound 799820]”: the “% inhibition of SMAD7 mRNA expression” value is recorded as 0%.
In the case of “799831 (antisense kT*kA*k[5mC]*dT*dT*dG*dG*dA*dA*dG*dA*dG*dT*kT*kT*kG) [compound 799831]”, the “% inhibition of SMAD7 mRNA expression” value was 18%.
The same measure, in the same setting: in the case of “799832 (antisense k[5mC]*kA*k[5mC]*d[5mC]*d[5mC]*dA*dT*dA*d[5mC]*dT*dT*dG*dG*kA*kA*kG) [compound 799832]” it was 14%; in that of “799833 (antisense kT*kT*kT*d[5mC]*dT*dG*dA*dA*d[5mC]*dA*dG*dA*dG*kT*k[5mC]*k[5mC]) [compound 799833]”, 39%.
Same read-out and setting: in the case of “799834 (antisense kG*kT*kG*dG*dT*dA*dT*dA*dG*d[5mC]*dA*dT*dG*k[5mC]*kA*kT) [compound 799834]” it was 0%; in that of “799835 (antisense kG*k[5mC]*kA*dG*dA*dT*dG*dT*dA*dT*dA*d[5mC]*dA*kA*kA*kT) [compound 799835]”, 70%.
On the same count and under the same terms, in the case of “799836 (antisense kA*kG*kA*dT*dA*dT*d[5mC]*dG*dG*d[5mC]*d[5mC]*d[5mC]*d[5mC]*k[5mC]*kT*kG) [compound 799836]” it was 61%.
